# Source: ChEMBL document CHEMBL3593180, “Lipocarbazole, an efficient lipid peroxidation inhibitor anchored in the membrane” (Bioorg Med Chem, 2015)
# Assay: Antioxidant activity in soybean large unilamellar vesicles assessed as inhibition of AAPH-induced lipid peroxidation compound added prior to AAPH induction measured after 90 mins by UV-visible absorption spectrometric analysis
# Assay type: physicochemical
row,IC50,Compound
1,160 nM,CCCCCCCC/C=C/CCCCCCCc1c(C)c(O)cc2c1[nH]c1ccccc12
2,1000 nM,Cc1cc2[nH]c3ccccc3c2cc1O
3,800 nM,VITAMIN E

row,Compound,IC50
1,O=c1c(O)c(-c2ccc(O)c(O)c2)oc2cc(O)cc(O)c12 [QUERCETIN],200 nM
